Patent publication US4569910A, “Methods and reagents for pyranosone production” (Cetus Corporation, priority 1984, dated 1986)

How the values were obtained:
C. versicolor P2O = target: T1, C. versicolor P2O (Trametes versicolor, UniProt P79076); experiment: Relative activities of purified C. versicolor P2O on pyranose substrates; assay type: biochemical; conditions: 1% (w/v) substrate concentration; D-glucose = 100
T1 construct: endogenous in cells; host or cells: Coriolus versicolor, own culture (NRRL 15152 / CMCC 0748, selected high producer; native enzyme, purified)
Experimental: The enzyme was applied to a 2.6×40 cm DEAE column, washed, and eluted using a 0-300 mM NaCl gradient. The P2O elutes at about 220 mM. Portions of each fraction were assayed for P2O activity, by monitoring peroxide generation conventionally. Protein concentration was also determined by a conventional method. The fractions containing P2O activity were pooled and concentrated by ultrafiltration with an Amicon PM10 filter obtained from Amicon Corp. Peak fractions were dialyzed into 30 mM sodium acetate (pH 5.5), adjusted to 1.5M NaCl and loaded onto a phenylsepharose column. The P2O was eluted with a 0-1.5M NaCl gradient in 50 mM sodium acetate, pH 5.5. The enzyme eluted at about 1.1M NaCl. Fractions containing the peak activity were pooled and concentrated to 0.5 ml by Amicon PM30 ultrafiltration and sized according to native molecular weight using a 1.5×95 cm Biogel P300 column. Elution was at 0.1 ml/minute with 100 mM sodium phosphate, pH 7.0. Using known molecular weight markers in the column, the enzyme's apparent native molecular weight was calculated to be about 130,000 daltons. A single band having a molecular weight of about 65,000 was observed when the enzyme was analyzed by SDS-PAGE. The enzyme thus appears to be a homodimer. The enzyme was judged to be about 95% pure, based on the staining intensity of protein bands in SDS-PAGE.
The relative activities of the enzyme on the substrates D-glucose, L-sorbose, D-xylose and delta-D-gluconolactone are 100: 74: 41: 6, respectively, at 1% (w/v) substrate concentration. The enzyme has a pH optimum of about 5.0.

P. obtusus P2O = experiment: Relative activities of purified P. obtusus P2O on pyranose substrates; assay type: biochemical; conditions: about 1% (w/v) substrate concentration; D-glucose = 100
Experimental: The P2O enzyme preparation from Example II was purified further using DEAE chromatography in 30 mM TRIS-HCl, pH 8.5, containing 2 mM EDTA and 10 ug/ml PMSF. The sample was eluted from a 5×16 cm column using a gradient of 0-300 mM NaCl. P2O activity was monitored using the orthodianisidine colorometric assay for the peroxide co-product, essentially as described by Ruelius et al., Biochim et Biophys. Acta 167, 493-500 (1968). P2O activity eluted at about 50 mM NaCl. Fractions containing the peak activity were pooled and concentrated to 0.5 ml by ultrafiltration using Amicon filters obtained from Amicon Corp. (Danvers, MA). Biogel P300 was obtained from Biorad Laboratories (Richmond, CA). The sample was further purified by molecular sieve chromatography using a 1.5×95 cm Biogel P300 column in 100 mM sodium phosphate, pH 7 buffer. The P2O activity eluted at a sharp peak corresponding to an apparent native molecular weight of about 290,000 daltons.
The enzyme appears to contain one covalently bound flavin molecule per subunit (detectable as UV-fluorescence in the 68,000 dalton SDS-PAGE band), and has absorption maxima at 276, 357 and 456 nm. The enzyme has a sedimentation coefficient of about 11.4, as determined by sucrose gradient ultracentrifugation. The relative activities of the enzyme, on D-glucose, L-sorbose, D-xylose, and D-gluconolactone are 100: 80: 48: 12, respectively, at about 1% (w/v) substrate concentration. As noted above with respect to FIG. 2, the enzyme has a broad pH optimum of between about 4.5 and 5.5.

L. betulinus P2O = experiment: Relative activities of purified L. betulinus P2O on pyranose substrates; assay type: biochemical; conditions: 20 mM substrate concentration; D-glucose = 100
Experimental: The resulting clear yellow supernatant was further purified using DEAE chromatography in 30 mM TRIS-HCl, pH 8.5, and eluted from the 5×16 cm column using a 0-300 mM NaCl gradient. The protein eluted at about 75 mM NaCl. Fractions containing the peak of P2O activity were pooled and concentrated to 0.5 ml by Amicon PM30 ultrafiltration, and then fractionated, according to native molecular weight, using a 1.5×95 cm Biogel P300 column. The column was run at a flow rate of 0.1 ml per minute, using 100 mM sodium phosphate, pH 7.0. The protein eluted in a fraction corresponding to an apparent native molecular weight of about 300,000 daltons. […] Based on the molecular weight data, the protein appears to be a homotetramer.
The enzyme contains a covalently attached flavin on each subunit, and has absorption maxima at 275, 360, and 450 nm. The relative activities of the purified enzyme on the pyranose substrates D-glucose, L-sorbose, D-xylose and delta-D-gluconolactone are 100: 43: 43: 26, respectively, at 20 mM substrate concentration. The enzyme has a broad pH optimum between about 5 and 6.

[1] = Nonenzymatic breakdown of purified glucosone (UV scans 200-350 nm; H2O2 effect); assay type: physicochemical; conditions: for Change of 310 nm peak (nonenzymatic breakdown): 0.5% glucosone solution, scans at one minute intervals
Experimental: The conversion of a pyranose to the corresponding pyranosone by P2O in the presence of oxygen is accompanied by the stoichiometric production of H2 O2. The H2 O2 produced in the reaction may promote oxidative degradation of the product. Studies performed in support of the present application indicate that nonenzymatic breakdown of glucosone to acidic products may be accelerated at H2 O2 concentrations above about 0.2 mM. More importantly, elevated H2 O2 concentrations produce relatively rapid inactivation of the P2O enzyme. The susceptibility of P2O to inactivation by elevated concentrations of H2 O2 in a continuous-flow reactor is described below in Example XIII. Briefly, four continuous-flow reactors containing different P2O/catalase activity ratios were run in the presence of pure glucose. The half-life of the P2O enzyme in each reactor was determined from the observed change in the amount of glucosone eluting from the reactor over a several-day reaction period. The measured half-lives of P2O expressed in arbitrary half-life units, are given in Example XIII, Table 1. As will be seen from the table, the presence of catalase, at a P2O/catalase activity ratio of less than about 10^-3 and preferably less than about 2×10^-4 (i.e., at an H2 O2 concentration of less than about 0.2mM) extends the measured P2O half-life 30-60 fold with respect to that of P2O reacted with glucose in the absence of catalase.
Secondly, studies indicate that pure glucosone undergoes relatively rapid, nonenzymatic breakdown above a pH of about 7.0. […] Immediately thereafter, the solution was scanned spectrophotometrically in the UV range between 200 and 350 nm, at one minute intervals.

H2O2 concentration above which nonenzymatic breakdown to acidic products may be accelerated [1]	SMILES	Relative activity of the enzyme on substrate (C. versicolor P2O)	Relative activity of the enzyme on substrate (P. obtusus P2O)	Relative activity of the enzyme on substrate (L. betulinus P2O)	Change of 310 nm peak (nonenzymatic breakdown) ([1]; pH 6.0)	Change of 310 nm peak (nonenzymatic breakdown) ([1]; pH 7.0, buffered)
	O=C[C@H](O)[C@@H](O)[C@H](O)[C@H](O)CO [D-glucose]	100	100	100		
	O=C[C@H](O)[C@@H](O)[C@H](O)CO [D-xylose]	41	48	43		
	O=C(CO)[C@@H](O)[C@H](O)[C@@H](O)CO [L-sorbose]	74	80	43		
	O=C1O[C@H](CO)[C@@H](O)[C@H](O)[C@H]1O [delta-D-gluconolactone, D-gluconic acid delta-lactone]	6	12	26		
above 0.2 mM	O=CC(=O)[C@@H](O)[C@H](O)[C@H](O)CO [glucosone, D-arabino-2-hexosulose]				no initial peak at 310 nm was observed nor did one form	increasing several-fold over a five minute period
